{"source": "patent US20260216374A1", "about": "“POU5F1B INHIBITORS” (ECOLE POLYTECHNIQUE FEDERALE DE LAUSANNE (EPFL), priority 2023, published 2026)", "type_in_all_cases": "cell-based, human", "key": {"POU5F1B [1]": {"test_system": "POU5F1B", "experiment": "Radiolabelling pulse-chase experiment to determine POU5F1B half-life", "conditions": "POU5F1B-overexpressing SW480 cells; ROCK inhibitors 20 μM 24 hours; MG132 10 μM 3 hours", "method": "Radiolabelling experiment to determine POU5F1B half-life. POU5F1B-overexpressing SW480 cells treated for 24 hours with capivasertib (20 μM), oxa-06 (20 μM) and Y-27632 (20 μM) ROCK inhibitors, and 3 hours with MG132 (10 μM) proteasome inhibitor, were washed with methionine/cysteine-free medium, incubated for a 20-min pulse at 37° C. with 50 μCi/ml [35S]methionine/cysteine (Hartman Analytics), washed, and further incubated for different times at 37° C. in complete medium with a 10-fold excess of nonradioactive methionine and cysteine. POU5F1B protein was HA-immunoprecipitated, eluted and loaded in SDS-PAGE gels, and autoradiographies were quantified using the Typhoon Imager (Image QuantTool, GE healthcare)."}, "POU5F1B-DCK": {"test_system": "POU5F1B-DCK", "experiment": "Dose response assay, BVdU survival of POU5F1B-DCK-overexpressing SW480 cells (POU5F1B-DCK degradation)", "conditions": "0.39-25 μM compound, 500 μM BVdU, reading at 96 h and 120 h", "method": "Dose response assays. POU5F1B-DCK-, DCK-overexpressing, and wild type SW480 cells were seeded in 96-well plates at a cell density of 2,000 cells/well in 100 μl of media. At the same time of cell seeding, 100 μM Capivasertib, OXA-06 and Laurocapram dissolved in DMSO were diluted in medium and 20 μl were dispensed in the 96-wells to achieve final concentrations of 0.39, 0.78, 1.56, 3.12, 6.25, 12.5 and 25 μM, keeping the final concentration of DMSO at 0.2% in each well. The next day, 500 μM BVdU (Brivudine H27853, Thermo Fisher) was added in all wells except for non-treated ones. Plate reading was done at 96 h and 120 h post BvDU treatment by measuring fluorescence after incubating the cells with PrestoBlue™ (A13262, Invitrogen) for 30 min."}, "POU5F1B [2]": {"test_system": "POU5F1B", "experiment": "Immunoprecipitation of HA-tagged POU5F1B followed by Western blot with phosphoserine-specific antibody", "conditions": "HA-tagged POU5F1B overexpressed in SW480 cells", "method": "Immunoprecipitation. Cells were washed three times PBS, lysed 30 min at 4° C. in the following Buffer (0.5% Nonidet P-40, 500 mM Tris pH 7.4, 20 mM EDTA, 10 mM NaF, 2 mM benzamidin and protease inhibitor cocktail (Roche)), and centrifuged 3 min at 5000 rpm. Supernatants were subjected to preclearing with mouse IgG-agarose beads (Sigma A0919) prior immunoprecipitation reaction. Supernatants were incubated overnight with anti HA-agarose beads (Sigma A2095). Similar elution volumes and protein quantities, for the IPs and the inputs, respectively, were submitted to SDS-PAGE and analyzed by immunoblotting using anti-ubiquitin […] (Santa Cruz Biotechnology sc-8017, 1:1,000), HRP-conjugated anti-HA (clone 3F10 Roche 12013819001, 1:1,000), anti-phosphoserine ([…], Sigma) and HRP-conjugated anti-mouse antibody."}, "POU5F1B [3]": {"test_system": "POU5F1B", "experiment": "Immunofluorescence of HA-tagged POU5F1B localization in SW480 cells", "conditions": "TAK-243 at 1 μM for 5 hours", "method": "Immunofluorescence. Cell lines were plated on glass coverslips into 24-well plates and cultured for 3 days up to 70% confluence in 500 ng ml^−1 doxycycline-containing medium. When needed, cells were treated with TAK-243, inhibitor of the ubiquitin activating enzyme, at 1 μM for 5 hours. Growth medium was refreshed (1 ml) prior a 15 min fixation with 1 ml 8% paraformaldehyde (PFA) added dropwise. Cells were washed three times with PBS, permeabilized with 0.1% saponin PBS for 20 min, and blocked with 1% BSA 0.1% saponin PBS for 30 min before incubation with anti-HA (bioLegend, Covance catalog #MMS-101P, 1:1,000) antibody in 1% BSA 0.1% saponin PBS 2 h at room temperature (RT) under agitation. Samples were washed three times with PBS and incubated with Alexa 647-conjugated (A647) anti-mouse antibody (1:1,000) in 1% BSA 0.1% saponin PBS for 40 min at RT. Three final washes were performed before mounting the slides in Vectashield with DAPI (Vector Laboratories). Images were acquired on a ZEISS LSM 700 confocal microscopy and analyzed with Fiji software."}}, "note": "“Also recorded” adds a separate entry of the source. Residues, ends and D or L forms follow the SMILES beside them. *: point of attachment. Cbz = O=C(OCc1ccccc1)*", "data": [{"smiles": "Fc1ccccc1CNCc1ccc(-c2ccnc3[nH]ccc23)cc1", "note": "[OXA-06]", "values": [{"measurement": "half-life of POU5F1B (pulse-chase)", "setting": "POU5F1B [1]", "value": "reduced"}, {"measurement": "POU5F1B(-DCK) degradation, read as cell survival after BVdU treatment", "setting": "POU5F1B-DCK", "value": "degraded"}, {"measurement": "wild type POU5F1B phosphoserine signal", "setting": "POU5F1B [2]", "value": "decreases"}]}, {"smiles": "NS(=O)(=O)OC[C@H]1C[C@@H](Nc2ccnc3cc(-c4cccc(SC(F)(F)F)c4)nn23)[C@H](O)[C@@H]1O", "note": "[TAK-243]", "values": [{"measurement": "POU5F1B subcellular localization", "setting": "POU5F1B [3]", "value": "triggers the re-localization of POU5F1B to the nucleus; also recorded: re-localization from the cytoplasm to the nucleus"}]}, {"smiles": "CC(C)C[C@@H](C=O)NC(=O)[C@H](CC(C)C)NC(=O)[C@H](CC(C)C)NC(=O)OCc1ccccc1", "note": "[MG132] (Cbz-Leu-Leu-Leu-aldehyde)", "values": [{"measurement": "half-life of POU5F1B (pulse-chase)", "setting": "POU5F1B [1]", "value": "stabilized"}]}, {"smiles": "CCCCCCCCCCCCN1CCCCCC1=O", "note": "[laurocapram]", "values": [{"measurement": "POU5F1B(-DCK) degradation, read as cell survival after BVdU treatment", "setting": "POU5F1B-DCK", "value": "degraded"}]}, {"smiles": "NC1(C(=O)N[C@@H](CCO)c2ccc(Cl)cc2)CCN(c2nc[nH]c3nccc2-3)CC1", "note": "[capivasertib]", "values": [{"measurement": "half-life of POU5F1B (pulse-chase)", "setting": "POU5F1B [1]", "value": "reduced"}, {"measurement": "POU5F1B(-DCK) degradation, read as cell survival after BVdU treatment", "setting": "POU5F1B-DCK", "value": "degraded"}, {"measurement": "wild type POU5F1B phosphoserine signal", "setting": "POU5F1B [2]", "value": "decreases"}]}, {"smiles": "C[C@@H](N)[C@H]1CC[C@H](C(=O)Nc2ccncc2)CC1", "note": "[Y-27632]", "values": [{"measurement": "half-life of POU5F1B (pulse-chase)", "setting": "POU5F1B [1]", "value": "reduced"}, {"measurement": "wild type POU5F1B phosphoserine signal", "setting": "POU5F1B [2]", "value": "decreases"}]}]}
